In patent US9744263B2, “Bone tissue implant comprising strontium ions” (ASTRA TECH AB, priority 2007, dated 2017):

What was measured:
Type in all cases: cell-based, human
[1] = system: MG-63 cells; experiment: Production of alkaline phosphatase (ALP) by MG-63 cells with Sr(NO3)2 added to the wells
Protocol: MG-63 is a human cell line (ATCC No CRL-1427, U.S.) conventionally used in the art for in vitro studies of osteoblasts.
In this study, MG-63 cells were obtained from frozen cells in second passage and further cultured in Dulbecco's modified Eagle's medium (DMEM) containing FCS 5%, PEST 1%, Gibco, UK) in 37° C. in an atmosphere of 5% CO2 and 100% humidity. When the cells reached confluence they were subcultured by the use of 0.05% Trypsin-EDTA (Gibco, UK) until the amount of cells were obtained.
In order to study the effect of strontium on the production of alkaline phosphatase (ALP), MG-63 cells prepared in reference example 1 were subcultured into 24 well plates at a plating density of 10 000 cells/cm^2, in total 20 000 cells/well. Sterile filtered Sr(NO3)2 at final concentrations of 10 mM, 5 mM, 3 mM, and 1 mM respectively (pH 5.2) were added to the respective wells of the plate. Untreated cells were used as controls. Cells were cultured for 3, 7 and 14 days at a temperature of 37° C. in an atmosphere of 5% CO2 and 100% humidity.
(§1) At harvest, the cell culture medium was analysed with respect to the ALP content. The intracellular ALP was measured by cell lysis according to the instructions of the manufacturer (SenzoLyte™ pNPP Alkaline Phosphatase Assay Kit Colorimetric BioSite, Sweden). The absorption was set at 405 nm by an automatic plate reader (Vmax, Molecular Device, UK). By comparing the optical density of the samples with the standard provided with the kit, the ALP concentrations could be determined. The instructions from the manufacturer were followed (BioSite, Sweden).

[2] = system: MG-63 cells; experiment: ALP production on reference surfaces; settings: 0.5 mM strontium on reference surface 1, after 7 days of cell culture
Protocol: as §1
The production of ALP on reference surface 1 comprising a concentration of 0.5 mM strontium was compared with unstimulated reference surfaces 1 and 2.

[3] = system: MG-63 cells; experiment: MG-63 proliferation on reference surfaces with strontium (NucleoCounter); settings: 0.5 mM strontium on reference surface 1, 7 days, compared to unstimulated reference surfaces 1 and 2
Protocol: Sterilized (β-radiation) Ti coins with reference surfaces 1 and 2, respectively were placed in 24 well plates. MG-63 cells were subcultured onto the coins in the 24 well plates at a plating density of 10 000 cells/cm^2, in total 20 000 cells/well. Sterile filtered Sr(NO3)2 at final concentrations of 5 mM and 0.5 mM (pH 5.2) was added to the respective wells. Untreated cells were used as controls. Cells were cultured for 7 days at a temperature of 37° C. in an atmosphere of 5% CO2 and 100% humidity.
The total number of cells in each well (×10^5) after each time period was determined by the NucleoCassette method by the NucleoCounter (ChemoMetec A/S Denmark).
The number of cells was investigated by lysis of the cells in “Reagent A” having a pH of 1.25 following stabilization by “Reagent B”. In the NucleoCassette, propidium iodide was incorporated which targets the amount of released DNA. The cassette was placed in the NucleoCounter and the amount of measured fluorochrome corresponded to the amount of DNA. The instructions from the manufacturer were followed (Chemometec A/S, Denmark).

O=[N+]([O-])[O-].O=[N+]([O-])[O-].[Sr+2] [strontium, Sr(NO3)2]
amount of ALP, rank among concentrations ([1]; 3 mM strontium, after 14 days of culturing): highest amount of ALP | production of ALP compared to control ([1]; after 7 days of culture): small increase | ALP levels compared to control ([1]; after 14 days, especially at Sr concentrations 1 mM and 3 mM): remarkably increased | production of ALP compared to control (unstimulated cells) ([1]; initially (3 days), all strontium concentrations (1, 3, 5, 10 mM), polystyrene): initially slow | production of ALP compared with unstimulated reference surfaces 1 and 2 [2]: increased production of ALP | MG-63 cell proliferation, rank [3]: highest MG-63 cell proliferation
